The subject of one series is Artemia salina. In words: whole plant or invertebrate. Format: in vivo. Particulars: for Effect on brine shrimp A. salina: at 30 µM. The method, then:
Brine shrimp A. salina is an important model organism for ecosystems, and because of its high sensitivity and easy availability, it can be used in laboratory settings to study toxic effects and to provide safe results. A. salina or brine shrimp cysts were cultivated in 3.2% of saline water. After aeration with normal saline, cysts were placed at temperature for 24 h and then cultured. For toxicity screening, hatched larvae were collected and introduced in saline water. Add 0.9% brine and 30 larvae with good activity to each well to produce a 96-well test culture plate. New compounds of 0.1 µM, 1 µM, 10 µM and 30 µM and DAT were added to the experimental culture plate, respectively. Dimethyl sulfoxide (Aladdin, Shanghai, China) and dichloromethane (Aladdin, Shanghai, China) were added as blank control and positive control. The survival rate of A. salina was calculated after 24 h treatment at 25 °C.
Commercially available Artemia salina (A. salina) or brine shrimp cysts were purchased and cultivated in 3.2% of saline water. Before cultivation, the saline was aerated, and then cysts were kept at room temperature for 24 h. For toxicity screening, hatched larvae were collected and introduced in saline water. Add saline water and equivalent larvae in per well of 96 wells to make test culture plate. Aplysiatoxins with 0.1 μM, 1 μM, 10 μM, 30 μM was added to test culture plate, while DMSO and dichloromethane were added as blank control test and positive control separately. After 24 h in 25 °C, the percent of survival of A. salina was calculated.
Table S1.3.2.1. Effect of compounds 1-4 to Artemia salina (A. salina) . A. salina were treated with indicated concentration (0.1 µM, 1 µM, 10 µM, 30 µM) of dichloromethane (DCM), debromoaplysiatoxin (DAT), oscillatoxin J, oscillatoxin K, oscillatoxin L, oscillatoxin M, Methylenechloride, Control for 24 h. The percentage of A. salina with all different kinds of […]
Compounds Percentage of Survival of Artemia salina after 24 h (μM) […]
Figure S1.3.2.1. Effect of debromoaplysiatoxin to Artemia salina (A. salina). […]
(also on this page, place not known: compound s , , , , J K L M . USA) -1.5 -1.0 -0.5 0.0 0 20 40 60 80 100 LogCon.
(1 picture or pasted object on this page, not shown here)

The next series has as its target T1, human Kv1.5 channels (Homo sapiens, UniProt P22460).
T1 construct: expressed in transfected cells
In words: Kv1.5 current inhibition, whole-cell electrophysiology in LTK cells stably expressing human Kv1.5. Format: cell-based. The settings on record: for Voltage dependence of Kv1.5 current inhibition: tested potentials -50 mV to 50 mV. As to the method:
For culturing mouse L cells lacking thymidine kinase (LTK) cells stably expressing human Kv1.5 channels (LTK/Kv1.5), 10% fetal bovine serum (FBS), 10,000 U/ml penicillin G and 10 mg/ml streptomycin were added into Dulbecco’s Modified Eagle Media (DMEM). LTK/Kv1.5 cells were cultured in a 37 °C humidified incubator set to 5% CO2. The amount of 100 μg/ml Genetic (G418) was added into the culture media to select transgenic cells. When the cells grew to 75–85% confluence, they were passaged for subsequent electrophysiological records (Supplementary Materials 1.3.1.1).
LTK cells cultured for at least 24 h could be used for currents recording. For Kv1.5 potassium current recording, the recording micropipettes were pulled with a P97 microelectrode puller (Sutter, CA, USA) with a resistance of about 3 MΩ when filling with internal solution containing the following: KCl 140 mM, MgCl2 1 mM, EGTA 5 mM, HEPES 10 mM and MgATP 1 mM (pH was adjusted to 7.25 by KOH). The bath solution contained the following: NaCl 137 mM, KCl 5.4 mM, CaCl2 1.8 mM, MgCl2 1 mM, Glucose 10 mM and HEPES 10 mM (pH was adjusted to 7.4 by NaOH). Kv1.5 currents were recorded at room temperature (22–24 °C) by PulseMaster (Version 2.65, Heka, Lambrecht, Germany) via an EPC-10 USB amplifier (Heka, Lambrecht, Germany). In order to reduce recording errors, cells with seal resistance above 1 GΩ and series resistance that was fully compensated above 80% were used. Leak compensation was used to compensate the leak current and to subtract the capacitive artifacts (Supplementary Materials 1.3.1.2).
1.3.1. Ion Channel Experiment
For culturing mouse L cells lacking thymidine kinase (Ltk−) cells stably expressing human Kv1.5 channels (Ltk−/Kv1.5), 10% fetal bovine serum (FBS), 10,000 U/ml penicillin G and 10 mg/ml streptomycin were added into Dulbecco's Modified Eagle Media (DMEM). Ltk−/Kv1.5 cells were cultured in a 37 °C humidified incubator set to 5% CO2. 100 μg/ml Genetic (G418) was added into the culture media to select transgenic cells. When the cells grew to 75% - 85% confluent, they were passaged for subsequent electrophysiological records.μ1.3.1.2.
1.3.1.2. Electrophysiology
Ltk− cells cultured for at least 24 h could be used for currents recording. For Kv1.5 potassium currents recording, the recording micropipettes were pulled with a P97 microelectrode puller (Sutter, CA, USA) with a resistance about 3 MΩ when filling with internal solution containing: KCl 140 mM, MgCl2 1 mM, EGTA 5 mM, HEPES 10 mM, MgATP 1 mM (pH was adjusted to 7.25 by KOH). The bath solution contained: NaCl 137 mM, KCl 5.4 mM, CaCl2 1.8 mM, MgCl2 1 mM, Glucose 10 mM, HEPES 10 mM (pH was adjusted to 7.4 by NaOH). Kv1.5 currents were recorded at room temperature (22–24°C) by PulseMaster (Version 2.65, Heka, Lambrecht, Germany) via an EPC-10 USB amplifier (Heka, Lambrecht, Germany).
To reduce recording errors, cells with seal resistance above 1 GΩ and series resistance was fully compensated above 80% were used. Leak compensation was used to compensate the leak current and to subtract the capacitive artifacts
Cells with amplitudes above 1 nA, series resistance less than 10 MΩ and leak compensation below 200 pA were chosen for data analysis. Kv1.5 currents were evoked by a 300 ms depolarizing pulse from -50 mV to 50 mv in 20 mV increments from a holding potential of -70 mV. The current amplitude at the end of 300-ms pulse was measured. The IC50 and Hill coefficient (n) was obtained by fitting concentration dependence data to the equation of I (%) = 1/{1+(IC50/[D]) n} in which I (%) is the percent inhibition of current (I (%) = [1-Idrug/Icontrol] ×100) at test potential and [D] represents various drug concentrations . The measured error at the end of relative short 300 ms pulse was limited and the fitted IC 50 was acceptable. For steady-state activation curves were fitted with the Boltzmann function: G/Gmax =1/{1+exp[−(V-V1/2)/k]}, where V is a membrane potential and the Nernst K + equilibrium potential EK was calculated as−80 mV. G was […]

The next series concerns phosphor PKCδ. Set-up: method as in PMID 35521179. Particulars: HepG2, 10 µM; cited from earlier work.
Another series deals with Kv1.2 channel. Also noted: method as in PMID 18313714. Particulars: read-out: IC50 against Kv1.2 channel; cited from earlier work.

Results on 7 molecules are retold here after article PMC8622842, “Absolute Structure Determination and Kv1.5 Ion Channel Inhibition Activities of New Debromoaplysiatoxin Analogues” (Marine Drugs, 2021).

“Also recorded” adds a separate entry of the source. Where two headings read alike, the source gives them in different places.

T1 sequence (P22460 whole entry): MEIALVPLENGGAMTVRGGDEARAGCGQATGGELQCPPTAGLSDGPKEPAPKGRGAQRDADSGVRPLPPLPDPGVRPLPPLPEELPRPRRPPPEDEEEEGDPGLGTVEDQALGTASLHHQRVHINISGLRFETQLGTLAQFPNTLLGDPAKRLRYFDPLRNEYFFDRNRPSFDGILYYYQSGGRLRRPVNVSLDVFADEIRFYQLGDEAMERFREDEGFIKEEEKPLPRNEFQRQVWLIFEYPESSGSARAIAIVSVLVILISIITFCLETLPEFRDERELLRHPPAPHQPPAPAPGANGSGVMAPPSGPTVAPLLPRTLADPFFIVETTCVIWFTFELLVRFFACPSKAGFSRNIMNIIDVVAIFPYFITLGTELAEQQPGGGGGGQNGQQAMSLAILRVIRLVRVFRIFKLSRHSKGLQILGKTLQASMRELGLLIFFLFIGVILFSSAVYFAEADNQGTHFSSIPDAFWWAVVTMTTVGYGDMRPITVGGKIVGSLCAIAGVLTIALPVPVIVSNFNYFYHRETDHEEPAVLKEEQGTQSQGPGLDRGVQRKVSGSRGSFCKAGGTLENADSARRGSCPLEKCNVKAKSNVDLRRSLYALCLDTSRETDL

As for `CO[C@@H](CC[C@H](C)[C@H]1O[C@@]23C[C@H](OC(=O)C[C@H]([C@@H](C)O)OC(=O)/C=C(\O2)C(C)=CC3(C)C)[C@@H]1C)c1cccc(O)c1` [Compound 1, oscillatoxin J], the “Percentage of Survival of Artemia salina after 24 h” value (from here on “Percentage”) in the series with Artemia salina (0.1 µM, 24 h) was determined as 96.62±0.37%; in the series on Artemia salina (1 µM, 24 h) it was 95.87±0.7%; in the series on Artemia salina (10 µM, 24 h), 95±1.52%; in the series with Artemia salina (30 µM, 24 h) it was 93.61±5.11%. Further, in the series on Artemia salina, the “Effect on brine shrimp A. salina” value was “no apparent effect”. The IC50 on human Kv1.5 channels (current at end of 300 ms pulse at 50 mV, 0.3-10 µM, mean ± SEM of 3 to 5 measurements, read-out: IC50 of Kv1.5 current inhibition) amounted to 2.61 ± 0.91 µM. For the same molecule, the “Voltage dependence of Kv1.5 current inhibition” value on human Kv1.5 channels is reported as “voltage dependently inhibited”.
Take `CO[C@@H](CC[C@H](C)[C@H]1O[C@]23C[C@H](OC(=O)C[C@H]([C@@H](C)O)OC(=O)[C@H](O)C(=C(C)CC2(C)C)O3)[C@@H]1C)c1cccc(O)c1` [Compound 2, oscillatoxin K]: the “Percentage” value in the series on Artemia salina (0.1 µM, 24 h) turned out to be 96.63±0.05%; in the series on Artemia salina (1 µM, 24 h), 96.05±0.07%; in the series on Artemia salina (10 µM, 24 h), 95.23±0.19%; in the series with Artemia salina (30 µM, 24 h) it was 89.97±7.12%. For the same molecule, the “Effect on brine shrimp A. salina” value in the series with Artemia salina is recorded as “no apparent effect”. In addition, on human Kv1.5 channels, the concentration for half-maximal inhibition (IC50) is 3.86 ± 1.03 µM. The “Voltage dependence of Kv1.5 current inhibition” value on human Kv1.5 channels is reported as “voltage dependently inhibited”.
Take `CO[C@@H](CC[C@H](C)[C@H]1O[C@@]23C[C@H](OC(=O)C[C@H]([C@@H](C)O)OC(=O)C[C@](O)(O2)[C@@](C)(O)CC3(C)C)[C@@H]1C)c1cccc(O)c1` [Compound 3, oscillatoxin L]: the “Percentage” value came out at 97.74±1.60% with Artemia salina (0.1 µM, 24 h); 98.89±1.57% in the series on Artemia salina (1 µM, 24 h); 96.37±0.28% in the series on Artemia salina (10 µM, 24 h); 73.38±9.64% in the series on Artemia salina (30 µM, 24 h). In addition, in the series on Artemia salina, the “Effect on brine shrimp A. salina” value is given as “no apparent effect”. On human Kv1.5 channels, this molecule came in with an IC50 greater than 10 µM. Moreover, the “Effect on Kv1.5” value at human Kv1.5 channels (at 10 µM) is “minimum effects; also recorded: no apparent Kv1.5 inhibition activity”.
Take `COC(CCC(C)C1OC23CC(OC(=O)CC(C(C)O)OC(=O)CC(C)(O2)C(=O)CC3(C)C)C1C)c1cccc(O)c1` (stereo not shown) [Compound 4, oscillatoxin M]: the “Percentage” value with Artemia salina (0.1 µM, 24 h) was found to be 95.13±1.09%; in the series with Artemia salina (1 µM, 24 h) it was 96.29±0.11%; in the series with Artemia salina (10 µM, 24 h) it was 96.15±0.12%; in the series with Artemia salina (30 µM, 24 h) it was 82.27±6.13%. For the same molecule, the “Effect on brine shrimp A. salina” value with Artemia salina is listed as “no apparent effect”. The molecule further displayed an IC50 on human Kv1.5 channels of 3.79 ± 1.01 µM. Besides, at human Kv1.5 channels, the “Voltage dependence of Kv1.5 current inhibition” value is listed as “voltage dependently inhibited”.
With `CO[C@@H](CC[C@H](C)[C@H]1O[C@@]23C[C@H](OC(=O)C[C@H]([C@@H](C)O)OC(=O)C[C@](O)(O2)[C@H](C)CC3(C)C)[C@@H]1C)c1cccc(O)c1` [Compound 5, debromoaplysiatoxin], the “Percentage” value in the series with Artemia salina (0.1 µM, 24 h) was found to be 87.19±0.74%; with Artemia salina (1 µM, 24 h), 2.96±2.1%; in the series with Artemia salina (10 µM, 24 h), 0%; in the series on Artemia salina (30 µM, 24 h), 0%. Also, the “Concentration at which survival of Artemia salina began to be affected” value in the series with Artemia salina (24 h) is 0.1 µM. For the same molecule, the IC50 in the series on Artemia salina (Artemia salina, 0.05-0.5 µM, read-out: IC50 of brine shrimp toxicity (survival of A. salina)) came to 0.34 ± 0.036 µM. In addition, in the series with phosphor PKCδ, the “Expression of phosphor PKCδ” value was “strongly upregulating”.
With `C=CC/C=C\C=C/[C@H]1O[C@H]2C[C@H]3O[C@H]4CC[C@H]5O[C@H]6C[C@@]7(C)O[C@@]8(C)[C@@H](O)C[C@H](CCCO)O[C@@H]8C[C@@H]7O[C@@H]6C[C@@H]5O[C@]4(C)C[C@]3(C)O[C@@H]2C=C[C@]1(C)O` [Gambierol], the IC50 in the series with Kv1.2 channel was 0.0345 ± 0.0015 µM.
In the case of `ClCCl` [Methylenechloride, dichloromethane, reference compound], the “Percentage” value in the series on Artemia salina (0.1 µM, 24 h) was found to be 0%; in the series with Artemia salina (1 µM, 24 h), 0%; in the series with Artemia salina (10 µM, 24 h), 0%; in the series with Artemia salina (30 µM, 24 h), 0%.
